# A melting point compilation (Tetko et al.; mined from patent text by program, amines drawn as free bases though some values may be those of a salt)
row,SMILES,melting point [°C]
1,COC(=O)c1c(C(F)F)nc(C(F)(F)F)c(C(=O)OC)c1CC(C)C,36 to 37
2,CCOC(=O)c1cccc(CN2CCN(c3nc(C)c(C(=O)NCc4ccccc4)s3)C2=O)c1,118 to 120
3,Cc1nccn1CCCC1CCc2onc(-c3ccccc3)c2C1=O (centres undefined),97 to 99
4,Cc1ccc(C(=O)Nc2cc(N3CCN(C)CC3)cc(C(F)(F)F)c2)cc1Nc1nccc(-c2cccnc2)n1,192 to 194
5,CN(Cc1coc(C=Cc2ccc(C(F)(F)F)cc2)n1)c1ccc(CCCCn2ccnn2)cc1,112 to 114
6,N#CC(C#N)=C1N(CCCN2CCCCC2)CCN1CCN1CCCC1,63 to 64
7,O=C(NCC1CCc2n[nH]cc2C1)[C@@H]1CCCN1C(=O)[C@@H](CC1CCCCC1)NS(=O)(=O)Cc1ccccc1 (some centres undefined),100 to 103
8,CCC1=Cc2cc3c(cc2C(c2ccc([N+](=O)[O-])cc2)=NN1C(C)=O)OCO3,132 to 134
9,CN1CCC(c2c[nH]c3ccc(Cn4cncn4)cc23)C1 (centres undefined),59 to 61
10,CS(=O)(=O)c1ccccc1S(=O)(=O)Nc1cccc2cc(C3=NCCS3)[nH]c12,211 to 212
11,OCCNc1c(Br)cnc2ccccc12,163 to 165
12,Cn1nc(C(F)(F)F)cc1Oc1cc(C#N)cc(-n2ccc(C(F)(F)F)n2)c1,116 to 117
13,CN1CCCC(C(=O)OC2c3ccccc3C(=O)N2c2ccc3ccc(Cl)nc3n2)C1 (centres undefined),211
14,CCOC(=O)c1cc(OC2CCCCC2=O)[nH]n1 (centres undefined),122 to 124
15,COc1cc(OC)c2c(=O)[nH]c(-c3ccc(OCCN4CCCC4)c(C)c3)nc2c1,230 to 231
16,COc1cc(OC)cc(-c2cc(=O)c3ccc(OCC4CO4)cc3o2)c1 (centres undefined),181 to 182
17,O=P1(c2cccc(C(F)(F)F)c2)OCc2ccccc21 (centres undefined),102 to 106
18,O=C1CCC(=O)N1CC#CCN1CCCC1,93 to 94
19,Cc1c(C)c2c(c(C)c1OC(=O)CCC(=O)O)CCC(C)(COc1ccc(CC3SC(=O)NC3=O)cc1)O2 (centres undefined),197 to 202
20,C#CCn1ncc(-c2ccc(S(C)(=O)=O)cc2)c(-c2ccc(F)cc2)c1=O,196 to 198
21,CCOC(OCC)c1cccc2c1Sc1ccccc1N2C,44.6 to 46.2
22,c1ccc(CCC2=NOC3(CCNCC3)C2)cc1,106 to 109
23,c1ccc2c(c1)Cn1c(cc3ccccc31)CN2,176 to 177
24,CC(=O)N1CCN2c3c(cccc3C3CCCC32)C1 (centres undefined),111 to 113
25,OCc1cccc2c1CCc1ccccc1-2,108 to 110

row,SMILES,melting point [°C]
1,COc1cccc2cc(CNCCNC(=O)C34CC5CC(CC3C5)C4)oc12,103 to 107
2,CS(=O)(=O)NC(=O)CCCCOc1cccc2occc12,110 to 112
3,Cn1nnnc1NC(=O)c1cccc2cccnc12,224 to 225
4,NC(=O)c1ncn2c1NCC=C2c1cccc(C(F)(F)F)c1,192 to 194
5,Clc1ccc2c(c1)C(c1ccccc1Cl)NCc1cncnc1-2 (centres undefined),169 to 170
6,CC(C)(CF)C(O)C(Oc1ccc(Cl)cc1)n1cncn1 (centres undefined),103 to 112
7,O=C(Nc1cc(-c2nc(Cc3ccccc3)c[nH]2)ccn1)c1ccccc1,110 to 112
8,O=C1NC(=O)c2c1c(-c1ccccc1)cc1[nH]c3ccc(OP(=O)(OCc4ccccc4)OCc4ccccc4)cc3c21,193 to 194
9,CCOC(=O)C(NC(C)=O)(C(=O)OCC)C1=Nc2ccc(Br)cc2C(c2ccccn2)=NC1,178 to 180
10,COc1nnc(-c2ccc3occ(-c4ccc(OC(F)(F)F)cc4)c3c2)o1,143 to 144
11,Brc1sc2ccccc2c1Br,57 to 59
12,CCn1c(CCOC(N)=O)nc(C(C)C)c1Sc1cc(Cl)cc(Cl)c1,161 to 162
13,CC(C)(C)NCC(=O)c1cccc2cc(O)c(O)cc12,140 to 144
14,Cc1cccc(-c2ccc3ccc(N)nc3n2)c1,180
15,CC(C)(C)c1cccc(S(=O)(=O)n2c(Cc3ccc(-c4n[nH]c(=O)o4)cc3)cc3cc(C(F)(F)F)ccc32)c1,92
16,COc1nc(C)nc(NC(=O)NS(=O)(=O)c2ccccc2C(=O)O)n1,157 to 158
17,COC(=O)c1ccc(NC(=O)CBr)cc1,144 to 146
18,O=C(O)c1cn2c(nc1=O)CCCCC2,198
19,CC1(C)OCC(Cn2c(=O)sc3c(=O)[nH]c(N)nc32)O1 (centres undefined),222 to 225
20,COc1ccc(S(=O)(=O)N2C(=O)C(O[Si](C)(C)C)(c3ccccc3OC(F)(F)F)c3cc(Cl)ccc32)c(OC)c1 (centres undefined),181
21,c1ccc(OCCSCc2nnc(-c3ccc(OCCCN4CCSCC4)cc3)o2)cc1,85
22,CSc1cc(Oc2cccc(C(F)(F)F)c2)nc(C(=O)NN)c1,149 to 151
23,N#Cc1nn(-c2c(Cl)cc(C(F)(F)F)cc2Cl)c(N)c1-c1ccccc1F,197
24,O=C(O)c1ccc2c(c1)S(=O)(=O)c1ccccc1C(=O)N2,337 to 340
25,COC(=O)C(=O)c1ccc(C(=O)NCCOc2ccc3ccccc3c2)cc1,114 to 115

row,SMILES,melting point [°C]
1,Clc1ccc(-n2nc3c(c2Br)CSCC3)cc1,144 to 145
2,OCc1cc(I)ccc1F,42
3,CCOC(=O)Oc1ccc(S(=O)(=O)N2c3cc(F)c(F)cc3-n3cccc3C2C)cc1 (centres undefined),89 to 91
4,N#Cc1cnc(-c2ccccc2OCC2CC2)[nH]c1=O,188 to 190
5,CCCCCC(=O)Nc1ccc2ccn(CCCCCCC(=O)NS(=O)(=O)c3ccccc3)c2c1,97 to 99
6,CCOC(=O)C(=O)Nc1ccc2cc(Br)ccc2c1[N+](=O)[O-],175
7,CCCOc1ccc(CO)cc1-c1nc2c(CCC)nn(C)c2c(=O)[nH]1,174 to 175
8,CCOC(=O)C1=C(C)NC(C)=C(C(=O)OC)C1c1ccc(SC)cc1 (centres undefined),163
9,N#Cc1nn(-c2c(Cl)cc(C(F)(F)F)cc2Cl)cc1-c1ccoc1,139
10,Clc1nc(-c2ccccn2)[nH]c1I,188 to 189
11,Cc1cc(-c2cccc(C(F)(F)F)c2)c2nc(C(F)(F)F)cnc2c1,117 to 118
12,O=[N+]([O-])c1cccc2c(OS(=O)(=O)C(F)(F)F)ccnc12,108
13,N#Cc1ncccc1-c1ccc2c(c1)C1(CCCCC1)C(=O)N2,232 to 234
14,Clc1cc(CCc2ccccn2)c2oc(-c3cnccn3)nc2c1,160 to 161
15,COc1ccccc1NC(=O)Nc1cccc(-n2c(=O)c(CCC(=O)ON3C(=O)CCC3=O)nc3cccnc32)c1,235 to 237
16,CCOC(=O)C(=O)Cc1ccnc2c1C(=O)c1ccccc1-2,196 to 197
17,O=CC(=O)c1ccc(Oc2cccc(C(F)(F)F)c2)cc1,73 to 80
18,CC(C)C[C@@H]1N[C@@H](c2ccc(C#N)cc2)[C@H]2C(=O)N(Cc3ccccc3)C(=O)[C@H]21 (racemic),152 to 153
19,Cn1cc(C(=O)c2ccc(Cl)cc2)cc1C(=O)c1ccc(Cl)nc1,150 to 152
20,CCCCn1c(=O)c2[nH]cnc2n(CCCC)c1=O,166 to 169
21,COC(=O)C1=C(CCc2ccccc2)NC(CC(=O)N2CCN(C)CC2)=C(C(=O)OC)C1c1c(Cl)cccc1Cl (centres undefined),138 to 139
22,COc1ccc(C(CCCCC(=O)O)C2=C(C)C(=O)c3ccccc3C2=O)cc1 (centres undefined),68 to 71
23,Cc1oc(-c2ccccc2)nc1COc1ccc(COc2ccc3ccccc3c2C=O)cc1,141 to 142
24,O=C(O)CNc1csc2ccccc12,195 to 198
25,COc1cc(OC)c2c(=O)[nH]c(-c3ccc(O)cc3)cc2c1,245 to 247

row,SMILES,melting point [°C]
1,CCc1nc(NC(=N)N)sc1-c1cccc([N+](=O)[O-])c1,149 to 151
2,Nc1ccc2oc(Cc3ccccc3)cc2c1,< 50
3,CCOC(=O)CC[C@H](NC(=O)c1ccc(N)c(F)c1)C(=O)OCC,92 to 97
4,CC(C)C(C)(C#N)N1C(=O)C=C(Nc2ccccc2CO)C1=O (centres undefined),39 to 45
5,N=c1cc(NCCCCc2c[nH]cn2)ccs1,209 to 211
6,CNC(=O)CCC(=O)c1c(OC)cccc1OC,134
7,CCCCCCCCCCCCCCCCCC(O)c1ccc(C2=NC(C)(C)CO2)cc1 (centres undefined),72 to 75
8,C=C(C)Cn1c(N)cc(=O)[nH]c1=O,267 to 269
9,N#CC(C#N)=C1N(CCCN2CCC(F)(F)C2)CCN1CCCN1CCC(F)(F)C1,122 to 124
10,Cc1oc(-c2ccccc2)nc1COc1ccc(CON=C(CCCCCCCC(=O)O)c2ccccc2)cc1,67 to 68
11,NC(=O)c1cnccc1-c1ccccc1C(=O)N1Cc2ccccc2Cc2ccccc21,217 to 220
12,CCn1c(N)c(C(=O)NC)c(=O)c2ccc(-c3ccc(NS(=O)(=O)c4cccc(Cl)c4Cl)cc3)nc21,210
13,CC(=O)Nc1c([N+](=O)[O-])cc(Br)c2c1CN(C(C)=O)CC2,173 to 175
14,Nc1c(Br)cc([N+](=O)[O-])cc1C(F)(F)F,84
15,O=C(c1ccc(Cc2c(Cl)cc(NN=Cc3ccccc3)cc2Cl)cc1)c1cnc(Cl)c(Cl)c1,173 to 175
16,CCOc1ccc(C2(C(=O)Oc3ccc(C(=O)NO)cc3)CCCCC2)cc1,140 to 143
17,O=C(Nc1ccc(CN2CCCCC2)cc1)C(Br)C(Br)c1ccc(-c2ccc(Cl)cc2)cc1 (centres undefined),145 to 150
18,CN1CCN(C2(CN(C)C(=O)c3ccc(Cl)c(Cl)c3)CCCCC2)CC1,126 to 129
19,CCC(=O)c1ccc(OCCCCCCCc2cc(C)no2)cc1,61
20,CNc1cc(SC2CCN(C)CC2)c(Cl)cc1[N+](=O)[O-],102
21,CNC(=O)Cn1c(-c2ccc(F)cc2)nc2cccnc21,215 to 217
22,CC(=O)NCc1ncc(-n2nc(C)cc2C)nc1Nc1ccc(Cl)cc1,228 to 230
23,CCn1cc(C#Cc2cccc(OC)c2)cc1C(=O)O,129
24,CC[C@H](O)C(=O)N1CCC(Oc2cc3ncnc(Nc4cccc(Cl)c4F)c3cc2OC)CC1,152 to 153
